These are literature values, as cited in patent publication US20240000880A1, “A PHARMACEUTICAL COMPOSITION FOR PREVENTING AND TREATING LUNG INJURY, A PREPARATION METHOD THEREFOR AND A USE THEREOF” (priority 2020, published 2024).

In the series the test system is rats with chronic obstructive pulmonary disease. Particulars: rats with COPD; previous studies.

The structures appear in SMILES notation.

Regarding `Oc1ccc(C=Cc2cc(O)cc(O)c2)cc1` [resveratrol], the “antioxidant efficacy on chronic obstructive pulmonary disease” value is “has antioxidant efficacy” and the lung function entry was “can improve lung function to some extent”.
